Target: Endothelin-1 receptor (Rattus norvegicus)
Assay: pA2 value towards endothelin receptor A was determined as functional ETA antagonism

Row | Kb [µM] | Compound
1 | 0.0251 | COc1ccc(C(=O)/C(Cc2cc(OC)c(OC)c(OC)c2)=C(\C(=O)O)c2ccc3c(c2)OCO3)cc1 [PD-156707 SODIUM]
2 | 0.00316 | COc1ccc(C(=O)/C(Cc2cc(OC)c(OC)c(OC)c2)=C(\C(=O)O)c2ccc3nsnc3c2)cc1

Target: T1, Endothelin-1 receptor (Rattus norvegicus, UniProt P26684)
T1 sequence (P26684 whole entry): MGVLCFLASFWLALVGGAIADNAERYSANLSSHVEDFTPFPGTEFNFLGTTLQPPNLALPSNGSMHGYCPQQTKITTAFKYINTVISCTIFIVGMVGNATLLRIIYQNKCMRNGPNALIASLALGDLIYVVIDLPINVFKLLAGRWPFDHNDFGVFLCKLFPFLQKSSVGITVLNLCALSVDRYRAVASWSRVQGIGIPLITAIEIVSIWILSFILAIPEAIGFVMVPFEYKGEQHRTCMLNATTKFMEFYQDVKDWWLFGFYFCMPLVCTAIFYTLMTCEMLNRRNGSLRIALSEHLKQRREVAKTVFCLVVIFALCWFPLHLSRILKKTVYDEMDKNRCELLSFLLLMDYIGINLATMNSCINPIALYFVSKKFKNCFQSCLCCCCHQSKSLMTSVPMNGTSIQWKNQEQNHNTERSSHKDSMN
Assay: Inhibition of [125I]ET1 binding to rat aorta membrane Endothelin A receptor

Row | Compound | IC50 [µM]
3 | CCCOc1ccc2c(c1)c(-c1ccc(OC)cc1)c(C(=O)O)n2Cc1ccc2nsnc2c1 | 0.21
4 | COc1ccc(-c2c(C(=O)O)c(=O)n(Cc3ccc4nsnc4c3)c3c2oc2ccccc23)cc1 | 0.39
5 | COc1cc2c(-c3ccc4c(c3)OCO4)c(C(=O)O)n(Cc3ccc4c(c3)OCO4)c2cc1OC | 0.15
6 | CCCOc1ccc2c(c1)c(-c1ccc3c(c1)OCO3)c(C(=O)O)n2Cc1ccc2c(c1)OCO2 | 0.25
7 | CN(C)c1cccc2c(S(=O)(=O)Nc3ccc4c(c3)OCO4)cccc12 | 0.37

Next, values leading:

Row | IC50 [µM] | Compound
8 | 2.5 | CCCOc1ccc2c(c1)c(-c1ccc3c(c1)OCO3)c(C(=O)O)n2Cc1ccc2nonc2c1
9 | 1.3 | COc1ccc(-c2c(C(=O)O)c(=O)n(Cc3ccc4c(c3)OCO4)c3c2oc2ccccc23)cc1
10 | 0.16 | CCCOc1ccc2c(c1)c(-c1ccc(OC)cc1)c(C(=O)O)n2Cc1cc2nsnc2cc1C
11 | 0.097 | CCCOc1ccc2c(c1)c(-c1ccc3c(c1)OCO3)c(C(=O)O)n2Cc1ccc2nsnc2c1
12 | 0.033 | COc1cc2c(-c3ccc4c(c3)OCO4)c(C(=O)O)n(Cc3ccc4nsnc4c3)c2cc1OC
13 | 0.0003 | COc1ccc(C2(O)OC(=O)C(c3ccc4nsnc4c3)=C2Cc2cc(OC)c(OC)c(OC)c2)cc1 (stereo not drawn)
